Source: PubChem BioAssay AID1996
Values after ≈ are worked out from the molar mass of the structure shown.

Settings: buffer; pH 7.4; 200.0 µM
For `Cc1ccc(N2CCN(CC(O)COc3ccccc3)CC2)cc1` (stereo not drawn), the solubility kinetic was 30.1 µg/mL (≈ 92.2 µM).
With `CCCCCCNC1=NCCS1` the solubility kinetic was 22.9 µg/mL (≈ 123 µM).
Molecule `O=C(/C=C/c1ccccc1)NCCc1nc2ccccc2[nH]1` has a solubility kinetic of 23.7 µg/mL (≈ 81.3 µM).
`Cc1cc2nc(C)c3c(n2n1)CCC3` gave a solubility kinetic greater than 28.1 µg/mL.
For `Cc1nnc(NC(=O)CSc2nccn2-c2ccc(F)cc2)s1`, the solubility kinetic was greater than 52.4 µg/mL.
Molecule `Cc1cccc(C)c1N1C(=O)CC(N2CCN(S(=O)(=O)c3ccccc3F)CC2)C1=O` (stereo not drawn) has a solubility kinetic of 50.7 µg/mL (≈ 114 µM).
Molecule `COc1cc(OC)nc(Oc2cccc(Cl)c2C)n1` has a solubility kinetic of 1.5 µg/mL (≈ 5.34 µM).
For `Cc1ccccc1COC(=O)c1cc([N+](=O)[O-])ccc1N1CCOCC1`, the solubility kinetic was 5.8 µg/mL (≈ 16.3 µM).
With `CC1CC(C)(C)NC(=S)O1` (stereo not drawn) the solubility kinetic was greater than 23.9 µg/mL.
For `Cc1cccc(OCC(=O)N2CCCc3ccccc32)c1`, the solubility kinetic was 30.3 µg/mL (≈ 108 µM).
Molecule `CC(=O)Nc1ccccc1` has a solubility kinetic greater than 20.3 µg/mL.
In the case of `Oc1ccccc1-c1nc(NC2CCCC2)c2ccccc2n1`, the solubility kinetic is reported as less than 0.2 µg/mL.
`N#Cc1ccc(COC(=O)c2ccc3c(c2)OCO3)cc1` gave a solubility kinetic of 2.3 µg/mL (≈ 8.18 µM).
`CC(NCc1ccccc1)c1ccccc1O` (stereo not drawn) showed a solubility kinetic of 27.2 µg/mL (≈ 120 µM).
Work on `O=C(CCCc1ccccc1)N1CCN(C2CCCCC2)CC1` yielded a solubility kinetic of 46.6 µg/mL (≈ 148 µM).
Work on `O=C(Nc1cccnc1)c1ccccc1Cl` yielded a solubility kinetic greater than 34.9 µg/mL.
Work on `N#Cc1ccc(NC(=O)c2cc(-c3cccs3)on2)cc1` yielded a solubility kinetic of less than 0.2 µg/mL.
`Cn1cnnc1SCC(=O)NCCC1=CCCCC1` gave a solubility kinetic greater than 42.1 µg/mL.
`CC1CN(C(=O)c2ccc(NS(=O)(=O)c3ccc(F)cc3)cc2)CC(C)O1` (stereo not drawn) showed a solubility kinetic greater than 58.9 µg/mL.
Work on `COc1ccc(C2c3c(nc[nH]c3=O)Oc3nc[nH]c(=O)c32)cc1` yielded a solubility kinetic greater than 48.6 µg/mL.
`COc1cccc(C(=O)C2CN(C)CC2c2ccc(Cl)cc2)c1` (stereo not drawn) gave a solubility kinetic greater than 49.5 µg/mL.
Molecule `COc1ccc(CC(=O)OCC(=O)NCc2ccc3c(c2)OCO3)cc1OC` has a solubility kinetic greater than 58.1 µg/mL.
`Cc1cccc(NC(=O)CCNC(=O)c2ccccc2Cl)n1` showed a solubility kinetic greater than 47.7 µg/mL.
Work on `COC(=O)C1CCN(Cc2cc(=O)oc3cc(C)c(Cl)cc23)CC1` yielded a solubility kinetic of 4.7 µg/mL (≈ 13.4 µM).
In the case of `Nc1nc(COC(=O)c2ccc3c(c2)OCCO3)nc(Nc2ccccc2)n1`, the solubility kinetic is reported as 3.9 µg/mL (≈ 10.3 µM).
`O=C(CSc1nc2ncccc2[nH]1)NCc1ccco1` gave a solubility kinetic greater than 43.2 µg/mL.
Work on `Cc1ccc(SCC(=O)NCc2ccccc2)cc1` yielded a solubility kinetic greater than 40.7 µg/mL.
Molecule `COC(=O)c1ccc(CN2CCCCC2)cc1` has a solubility kinetic of 28.9 µg/mL (≈ 124 µM).
In the case of `NC1=NC(=O)/C(=C\c2cccnc2)S1`, the solubility kinetic is reported as greater than 30.8 µg/mL.
For `O=c1c2cc([N+](=O)[O-])ccc2nc2n1CCCC2`, the solubility kinetic was greater than 36.8 µg/mL.
For `Cc1cc(C)nc(-n2ncc3c2CC(C)CC3=O)n1` (stereo not drawn), the solubility kinetic was greater than 38.4 µg/mL.
In the case of `Cc1cccc(-c2nc3sc(C)cc3c(=O)o2)c1`, the solubility kinetic is reported as less than 0.6 µg/mL.
Work on `Cc1cc(F)ccc1S(=O)(=O)Nc1ccc(C(=O)N2CCCCC2)cc1` yielded a solubility kinetic greater than 56.5 µg/mL.
With `CCCCN(C(=S)SC)C1CCS(=O)(=O)C1` (stereo not drawn) the solubility kinetic was 36.9 µg/mL (≈ 131 µM).
With `O=C(O)Cn1cnc2scc(-c3ccccc3)c2c1=O` the solubility kinetic was greater than 42.9 µg/mL.
`Cc1c(O)ccc(C(=O)CN2CCN(c3ccccc3F)CC2)c1O` gave a solubility kinetic of 13.7 µg/mL (≈ 39.8 µM).
With `O=C1Nc2ccc(Br)cc2C1(O)c1ccccc1` (stereo not drawn) the solubility kinetic was greater than 45.6 µg/mL.
For `N[C@@H](Cc1ccc(O)cc1)C(=O)Nc1ccc2ccccc2c1`, the solubility kinetic was greater than 46 µg/mL.
In the case of `NS(=O)(=O)c1ccc(NC(=O)c2ccc(S(=O)(=O)N3CCCCC3)cc2)cc1`, the solubility kinetic is reported as 2.1 µg/mL (≈ 4.96 µM).
`CC(C)c1ccc(NC(=S)N2CCN(C)CC2)cc1` showed a solubility kinetic greater than 41.6 µg/mL.
Molecule `O=C1Nc2ccccc2SC1c1ccccc1` (stereo not drawn) has a solubility kinetic of 1.7 µg/mL (≈ 7.04 µM).
For `S=C(NCCc1ccccn1)Nc1ccccc1`, the solubility kinetic was 32.1 µg/mL (≈ 125 µM).
With `Cc1cc(C)c2c(=O)cc(C(F)(F)F)oc2n1` the solubility kinetic was 17.3 µg/mL (≈ 71.1 µM).
With `COC(=O)CNC(=O)C1CC(=O)N(CCc2ccc(F)cc2)C1` (stereo not drawn) the solubility kinetic was greater than 48.4 µg/mL.
Work on `COC(=O)c1ccc2nc(NC(=O)C3CC3)sc2c1` yielded a solubility kinetic of 4.1 µg/mL (≈ 14.8 µM).
For `COc1ccc(OC)c2c1sc(=NC(=O)C1CCCCC1)n2C`, the solubility kinetic was less than 0.4 µg/mL.
For `CCCn1c(COc2ccc(C(=O)O)cc2)nc2ccccc21`, the solubility kinetic was greater than 46.6 µg/mL.
`CC1(C)C2CCC(C2)C1(C)NC(=O)C[N+](C)(C)C.[Cl-]` (stereo not drawn) gave a solubility kinetic of 43.2 µg/mL.
For `O=C(NCCc1ccccc1)c1ccc2c(c1)OCO2`, the solubility kinetic was 39.6 µg/mL (≈ 147 µM).
Work on `Cc1ccc(CNC(=O)CSc2nc3ccccc3c(=O)n2CC2CCCO2)cc1` (stereo not drawn) yielded a solubility kinetic of 4.5 µg/mL (≈ 10.6 µM).
`CC(=O)Nc1ccc(-c2cc(C(=O)O)c3ccccc3n2)cc1` gave a solubility kinetic of 42.8 µg/mL (≈ 140 µM).
Molecule `COC(=O)c1cc(-c2cccc(OC)c2)c2c(=O)[nH]c(=O)n(C)c2n1` has a solubility kinetic of 3.4 µg/mL (≈ 9.96 µM).
Work on `CCc1ccccc1NC(=O)c1cnn(-c2ccccc2)c1C` yielded a solubility kinetic greater than 45.8 µg/mL.
`Cc1cccc(N2C(=O)C3C4C=CC(CC4)C3C2=O)c1` (stereo not drawn) showed a solubility kinetic of 33.5 µg/mL (≈ 125 µM).
`Cc1cc(Nc2cccc(F)c2)nc(N2CCOCC2)n1` gave a solubility kinetic of 36.2 µg/mL (≈ 126 µM).
Work on `COCc1cc(=O)[nH]c(Cc2c(Cl)cccc2Cl)n1` yielded a solubility kinetic of 1.7 µg/mL (≈ 5.68 µM).
Work on `CN(C)c1c(F)cc(C(=O)NC(=O)NCc2cccnc2)cc1F` yielded a solubility kinetic of 4 µg/mL (≈ 12 µM).
With `CCC(C)NC(=O)c1cc2c(=O)n3cccc(C)c3nc2s1` (stereo not drawn) the solubility kinetic was 46 µg/mL (≈ 146 µM).
With `O=C(COC(=O)c1ccc(O)cc1)NCCC1=CCCCC1` the solubility kinetic was greater than 45.5 µg/mL.
Work on `O=C(CNC(=O)c1ccco1)Nc1ccncc1` yielded a solubility kinetic of 36.4 µg/mL (≈ 148 µM).
`CCOC(=O)C1=C(N)Oc2cc(O)ccc2C1c1ccccc1` (stereo not drawn) gave a solubility kinetic of less than 0.7 µg/mL.
Molecule `COc1ccc(S(=O)(=O)N2CCOCC2)cc1NC(=O)CN1C(=O)CN(C)C1=O` has a solubility kinetic greater than 64 µg/mL.
`O=C(Nc1nc2ccccc2[nH]1)c1cc(F)cc(F)c1` showed a solubility kinetic of 0.7 µg/mL (≈ 2.56 µM).
Molecule `CC(C)c1ccc(NC(=S)N2CCCC2)cc1` has a solubility kinetic greater than 37.3 µg/mL.
For `CCOc1ccc(N2CC(C(=O)N3CCCc4ccccc43)CC2=O)cc1` (stereo not drawn), the solubility kinetic was 47.2 µg/mL (≈ 130 µM).
With `Cc1cc(C)cc(NC(=O)CCN2CCOCC2)c1` the solubility kinetic was greater than 39.4 µg/mL.
For `CC1=NCCN1CCNC(=O)Nc1ccc(C(C)(C)C)cc1`, the solubility kinetic was greater than 45.4 µg/mL.
`Fc1ccccc1-c1nc(NCc2ccccc2)c2ccccc2n1` gave a solubility kinetic of 3.1 µg/mL (≈ 9.41 µM).
With `CCCCCCCCOc1ccc(C2CC(=O)NC2=O)cc1` (stereo not drawn) the solubility kinetic was less than 0.6 µg/mL.
Molecule `CC(C)c1ccc(N=C(N)N=C(N)N)cc1.Cl` has a solubility kinetic greater than 38.4 µg/mL.
In the case of `Cc1sc2nc[nH]c(=O)c2c1-c1ccc(Cl)cc1`, the solubility kinetic is reported as 1.8 µg/mL (≈ 6.5 µM).
Work on `O=C(NCc1ccco1)c1cc([N+](=O)[O-])ccc1Cl` yielded a solubility kinetic of 28.3 µg/mL (≈ 101 µM).
Molecule `O=C(CN1c2cccc3cccc(c23)S1(=O)=O)NC1CCCCC1` has a solubility kinetic of 5 µg/mL (≈ 14.5 µM).
Molecule `CC(C)(C)C(=O)Oc1cccc(Nc2ncnc3ccccc23)c1` has a solubility kinetic of 34.1 µg/mL (≈ 106 µM).
Molecule `Cc1ccc(C)c(NC(=S)NCc2ccccc2)c1` has a solubility kinetic of 40.2 µg/mL (≈ 149 µM).
Work on `CC(C)OCCCNC1=C(Cl)C(=O)c2ccccc2C1=O` yielded a solubility kinetic of 35.5 µg/mL (≈ 115 µM).
`CCOC(=O)C1(C)NC(c2ccco2)C2C(=O)N(CC)C(=O)C21` (stereo not drawn) gave a solubility kinetic greater than 48.1 µg/mL.
For `COc1ccc(NC(=O)c2ccccc2NC(=O)c2ccco2)cc1`, the solubility kinetic was less than 0.4 µg/mL.
`CCN(CC)P(=O)(c1ccccc1)c1c(C)nc2ccccn12` (stereo not drawn) gave a solubility kinetic greater than 49.1 µg/mL.
Molecule `CC(=O)N1CCN(C(=O)c2ccc(C(=O)c3ccccc3)cc2)CC1` has a solubility kinetic greater than 50.5 µg/mL.
With `COc1ccc([N+](=O)[O-])cc1NC(=O)c1ccccc1SC` the solubility kinetic was 0.4 µg/mL (≈ 1.26 µM).
`CSc1nsc(SCC(=O)Nc2ccc(F)cc2)n1` gave a solubility kinetic of 39.6 µg/mL (≈ 126 µM).
With `Cc1ccc(NC(=O)C2CCCN2C(=O)Oc2ccccc2)c(C)c1` (stereo not drawn) the solubility kinetic was greater than 50.8 µg/mL.
In the case of `O=C1Nc2ccccc2/C1=C/c1ccccc1F`, the solubility kinetic is reported as 2.4 µg/mL (≈ 10 µM).
With `Cc1c2c(n3c(nc4ccccc43)c1C#N)N(CCN(C)C)CC2` the solubility kinetic was greater than 47.9 µg/mL.
For `COCCCN1CN=C(NS(=O)(=O)c2ccc(C)cc2)NC1`, the solubility kinetic was greater than 49 µg/mL.
For `Cc1cccc(OCC(=O)NCc2cc(C)nc3ccccc23)c1`, the solubility kinetic was 5 µg/mL (≈ 15.6 µM).
In the case of `Fc1ccc(NC(=S)Nc2cccnc2)c(Cl)c1`, the solubility kinetic is reported as greater than 42.3 µg/mL.
